These results are taken from patent publication US20220023269A1, “Methods Of Treating Diabetes In Severe Insulin-Resistant Diabetic Subjects” (Balticgruppen Bio AB, priority 2018, published 2022).

For assay [1], the system named is CBA mice on HFD. Briefly: Echocardiography (LV function). It counts as in vivo. The conditions noted are these: for heart rate: anesthetized. The protocol: Left ventricle structure and function were analysed with transthoracic, high-frequency echocardiography using the MS550D transducer. The examination was performed during light isoflurane anaesthesia (1.5-2.0% in 800 mL oxygen). Anaesthesia level was adjusted to keep the respiration rate at 80-110 breaths per minute. Left ventricular volumes were determined in B-mode using a Simpson's rule reconstruction. All images were analysed off-line in a blinded way using the Vevo LAB software 1.7.0. Stroke volume, cardiac output and heart rate were analysed, as well as wall thicknesses and left ventricle diameter. Three measurements/animal was performed for mean values.

Assay [2] concerns CBA mice on HFD. Briefly: Arginine-stimulated insulin secretion. It counts as in vivo. The settings on record: 0.8 mg/g in HFD, 11 w; arginine 1 g/kg i.p.
Method: Arginine-stimulated insulin secretion was determined following i.p. injection of arginine (SIGMA #A5131) (1 g/kg body weight) in non-fasted 21 weeks old CBA mice that had been on HFD or test material-HFD (0.8 mg/g) for 11 w. Blood glucose was measured using Glucometer (Ultra 2, One Touch) and plasma insulin analysed via the ultrasensitive mouse insulin ELISA kit (Chrystal Chem Inc. #90080). Area under the Curve (AUC) was calculated according to the trapezoid rule.
The test system of assay [3] is patients suffering from type-2 diabetes. The assay can be described thus: Renal hemodynamics / glomerular perfusion in humans. The format is in vivo, human.
Assay [4] concerns CBA mice on HFD. Briefly: In vivo glucose uptake ([18F]-FDG PET). The conditions noted are these: 2 mg/g in HFD, 2 w, vs HFD. The protocol:
Mice were allowed to be awake and freely moving around in their cage after injection. After 180 minutes, mice were sacrificed under deep isoflurane anaesthesia and blood was removed by retrograde perfusion of PBS via the aorta. When the liver was pale, tissues were collected and scanned for a 10 minutes static uptake (nanoScan PET/CT, Mediso, Hungary). The tissues were then scanned ex vivo scanning to assess uptake in the isolated tissues. Images were reconstructed to a 0.4×0.4 mm resolution with a 3D iterative reconstruction with 4 iterations and 4 subsets (Mediso Tera-Tomo 3D), covering 98 mm axial distance, employing spike filter, delayed-window random correction, scatter and CT-based attenuation corrections. Volumes of interest were manually delineated over each tissue using imlook4d (www.dicom-port.com). Tracer uptake was quantified as standardised uptake values (SUV), using the formula: SUV=C/(l/m); with C being the measured tissue activity concentration (Bq/mL), l the injected dose (Bq), and m the body weight (g). C and l are decay corrected to the same time.

Assay [5] deals with Zucker rats. The assay can be described thus: Infrared thermal imaging. The format is in vivo. The settings on record: 10 mg/kg/day, 12 days. The protocol: Skin temperature of non-sedated Zucker rats that had been treated with test material (10 mg/kg/day) or vehicle for 12 days was recorded with an infrared camera (FLIR ix series Extech IRC30, FLIR systems Inc.) and analysed with a specific software package (FLIR QuickReport version 1.2 SP2 (1.0.1.217). 9 rats per group was used and mean and maximum skin surface temperatures were measured for each animal 2 hours after final dose administration.

For assay [6], the system named is AMPK in human islets. The assay can be described thus: AMPK activation in human islets. The conditions noted are these: 1.0, 2.5, 5.0, 10 μM, 4 hours. The format is cell-based. The protocol:
All cell lines were lysed in 0.1 M Tris-HCl, pH 6.8, 2% SDS, 10 mM sodium fluoride (SIGMA #S7920), 10 mM β-glycerophosphate (SIGMA #G6376), and 1 mM sodium vanadate (SIGMA #72060) and supernatant collected after 1 minute at 14,000 rpm. Islets (human and mouse) were lysed in 0.1 M Tris-HCl, pH 6.8, 2% SDS, protease inhibitor (Roche #04 693 124 001) and phosphatase inhibitor (Roche #04 906 837 001). Right calf muscle, heart, iWAT, and interscapular BAT was crushed in a pestle using liquid nitrogen and homogenised in ice cold RIPA buffer (150 mM sodium chloride (SIGMA #S7653), 1.0% NP40 (USB), 0.5% sodium deoxycholate (SIGMA #D6750), 0.1% SDS, 50 mM Tris pH 8.0, 20 mM sodium pyrophosphate (SIGMA #71515), 10 mM sodium fluoride, 10 mM β-glycerolphosphate, 1 mM sodium vanadate and protease inhibitor cocktail (Roche #04693124001), 1 tablet/10 ml lysis buffer). The supernatant was collected after 2 min at 14,000 rpm. This procedure was repeated until all fat was eliminated and the supernatant was clear, at 4° C. Samples were analysed on 4-15% polyacrylamide gels. Values were normalised toward AMPKα, β-Actin, GAPDH or the respective non-phosphorylated counterpart.
Table 3 contains origin of cell lines, growth conditions and settings for activation of AMPK via the test material. […]

Where [7] appears, read: test material-HFD 0.8 or 2 mg/g, 6 w.

With `O=C(Nc1nc(=O)n(Cc2ccc(Cl)cc2)s1)c1ccc(Cl)cc1` [test material, 4-chloro-N-[2-[(4-chlorophenyl)methyl]-3-oxo-1,2,4-thiadiazol-5-yl]benzamide], the heart rate entry in assay [1] (0.8 mg/g) was “normalized”. In addition, in assay [1] (2 mg/g), the heart rate result was “reduced heart rate”. Further, the “increase in stroke volume compared with both RD and HFD” value in assay [1] (test material-HFD 0.8 mg/g and 2 mg/g, 6 w) is roughly 20%. Moreover, in assay [1] (setting [7]), the end-diastolic volume entry is recorded as “normalized end-diastolic volume” and the end-systolic volume result is recorded as “dose-dependently improved, but did not fully restore”. In assay [2], the “arginine stimulation of insulin secretion, increase vs HFD” value was found to be 2 fold. Also, the “microvascular perfusion in glomeruli” value in assay [3] (humans) is “positive effect on microvascular perfusion in glomeruli”. For the same compound, in assay [3] (patients suffering from type-2 diabetes), the renal hemodynamics entry is listed as “positive effects on renal hemodynamics”. Also, in assay [4], the “[18F]-FDG uptake in calf and thigh muscle” value is listed as “significant increase”; the “[18F]-FDG uptake in heart” value is “significant increase”. Also, the skin-surface temperature result in assay [5] is reported as “increased”. Moreover, in assay [6], the pAMPKα entry was “directly increased pAMPKα”.
